Values quoted from earlier work, collected in patent publication US20110034478A1, “Oral Pharmaceutical Compositions in a Solid Dispersion Comprising Preferably Posaconazole and HPMCAs” (Schering-Plough Corporation, priority 2008, published 2011).

| solubility in water | Structure (SMILES) |
| --- | --- |
| practically insoluble | CCC(C)n1ncn(-c2ccc(N3CCN(c4ccc(OC[C@H]5CO[C@](Cn6cncn6)(c6ccc(Cl)cc6Cl)O5)cc4)CC3)cc2)c1=O (mixture of isomers) [Itraconazole] |
| < 100 µg/mL | CC(C)N1CCN(c2ccc(OC[C@H]3CO[C@](Cn4cncn4)(c4ccc(Cl)cc4Cl)O3)cc2)CC1 (racemic) [Terconazole] |
| practically insoluble | CC(C(=O)Nc1cc(-c2ccccc2)nn1-c1ccccc1)N(C)C (stereo not shown) [Difenamizole] |
| about 1 ug/ml | OC(Cn1cncn1)(Cn1cncn1)c1ccc(F)cc1F [Fluconazole] |
| practically insoluble | N#Cc1ccc(C(c2ccc(C#N)cc2)n2cncn2)cc1 [Letrozole] |
| poorly soluble | CCC(C)n1ncn(-c2ccc(N3CCN(c4ccc(OCC5CO[C@](Cn6cncn6)(c6ccc(F)cc6F)O5)cc4)CC3)cc2)c1=O (stereo partly shown) [Saperconazole] |

remark: another data set of the same source

| pKa | Structure (SMILES) |
| --- | --- |
| 3.7 | CCC(C)n1ncn(-c2ccc(N3CCN(c4ccc(OC[C@H]5CO[C@](Cn6cncn6)(c6ccc(Cl)cc6Cl)O5)cc4)CC3)cc2)c1=O (mixture of isomers) [Itraconazole] |
